Earlier results as cited in patent US6605639B1, “Ligands of nuclear receptor” (Nuclear Receptor Research, Ltd., priority 1998, dated 2003).

Columns and labels:
[1] = test system: hereditary obese diabetic mice ob/ob and db/db; conditions: oral; cited from earlier work
patients = conditions: at the normal dose; cited from earlier work

Compound	blood glucose levels, serum neutral fat levels and serum insulin levels [1]	patients with hepatopathy (patients)
C=C(c1ccc(C(=O)O)cc1)c1cc2c(cc1C)C(C)(C)CCC2(C)C [LGD1069]	drastically lower	
Cc1c(C)c2c(c(C)c1O)CCC(C)(COc1ccc(CC3SC(=O)NC3=O)cc1)O2 (centres unmarked) [troglitazone]		about 2%
